Columns and labels:
[1] = test system: prostaglandin synthesis in MSCP5 cells; experiment: Inhibition of prostaglandin synthesis/release in keratinocytes (14C-arachidonic acid labelling); type: cell-based, mouse; conditions: 10 μm, incubated 2 hours
Procedure: Inhibition of Prostaglandin Synthesis by Salicin Derivatives (in Mouse or Human Skin Keratinocytes MSCP 5 or HPK II)
The cells were marked for 16 hours with 0.2 μCi ^14C-arachidonic acid ml^−1 medium. The test substances were added in fresh medium with increasing concentrations and incubated for 2 hours. In the Figure, the substances have the following meanings:
In the positive control NS398 (10 μm) for MSCP5 cells, prostaglandin synthesis is reduced by 85%. The prostaglandins were identified by comparison with reference substances and quantified by radiosensitometry. The result is expressed as the average value of three measurement points: MSCP 5: 100%=201 cpm; HPK II: 100%=63 cpm.

[2] = HLB value (ratio of hydrophilic to hydrophobic component); type: physicochemical
Text: The salicyl alcohol derivatives according to the invention have valuable biological activities such as, for example, anti-inflammatory, antipyretic, antiphlogistic or analgesic effects. Thus, prostaglandin synthesis is inhibited to a greater extent with the compounds according to the invention than, for example, with compounds known from the literature, such as salicin, which is associated with the greater lipophilia of the compounds according to the invention. The better effect is dependent inter alia on efficient absorption by the cell membranes of the keratinocytes. The lipid solubility of glycosidic compounds derives from the ratio of hydrophilic component to hydrophobic component which is described by the HLB value. Salicin which has an HLB value of about 12 is more of a water-soluble molecule whereas salicin esters with HLB values of, in some cases, well below 10 are more liposoluble molecules.

[3] = test system: human HPKII keratinocytes; experiment: Cytotoxicity, MTT test in human skin keratinocytes; type: cell-based; conditions: for toxicity to the cells (MTT test): human HPKII keratinocytes, concentrations showing inhibition of prostaglandin synthesis, incubation 1.5 or 20 h, confluent or subconfluent; for influence on the vitality of skin cells (keratinocytes), FIG. 1: incubated 20 h in culture medium, then MTT reduction test, cell line not given
Text: (§1) Cytotoxicity (in Mouse or Human Skin Keratinocytes, MSCP 5 or HPK II)
(§2) The toxicity of the substances was investigated by the MTT Test (Mosmann 1983) in cell cultures. This test is based on the conversion of the yellow tetrazolium salt MTT into the violet dye formazane. The reaction takes place only in living cells through the succinate dehydrogenase located in the inner mitochondrial membranes. On account of the potential use in cosmetic or pharmaceutical products, skin cells (human HPKII or mouse MSCP 5 keratinocytes) were used as the test system. […] The effect of the substances on the keratinocytes was independent of the time (incubation time 1.5 or 20 h), the growth state (confluent or subconfluent) and the organism (mouse or human).
(§3) The substances were dissolved in the culture medium and incubated with the cells for 20 h. The MTT reduction test was then carried out with fresh medium without test components.

[4] = test system: mouse MSCP 5 keratinocytes; experiment: Cytotoxicity, MTT test in mouse skin keratinocytes; type: cell-based; conditions: concentrations showing inhibition of prostaglandin synthesis, incubation 1.5 or 20 h, confluent or subconfluent
Text: as §1, §2, §3

[5] = test system: COX-2-mRNA in MSCP 5 cells; experiment: Northern Blot analysis of COX-2 mRNA in keratinocytes; type: cell-based, mouse; conditions: subconfluent MSCP 5 cells, 500 μM, 45 mins
Procedure: Influencing of the Transcription Activity of HPK II (Human Skin Keratinocytes)
The release of prostaglandins can be influenced by inhibitors at several levels. Besides inhibition of the catalytic activity of the prostaglandin synthase proteins, another possible effect is on the messenger RNA of the cyclooxygenases. […] As a negative control, the cells were incubated for 45 minutes in medium containing only the solubilizer acetone (0.25%) but no test substance for the same recorded RNA concentration.

## CS(=O)(=O)Nc1ccc([N+](=O)[O-])cc1OC1CCCCC1 [NS398]
[1]
  reduction of prostaglandin synthesis: 85%

## OCc1ccccc1O[C@@H]1O[C@H](CO)[C@@H](O)[C@H](O)[C@H]1O [Salicin, [2-(hydroxymethyl)phenyl]-β-D-glucopyranoside]
[2]
  HLB value: about 12

## O=C(Cc1ccc(O)cc1)OC[C@H]1O[C@@H](Oc2ccccc2CO)[C@H](O)[C@@H](O)[C@@H]1O [p-OH-phenyl acetyl salicin, 6-O-p-OH-phenylacetyl-([2-hydroxymethyl)phenyl]-β-D-glucopyranoside]
[3]
  toxicity to the cells (MTT test): non-toxic
  influence on the vitality of skin cells (keratinocytes), FIG. 1: minimal
[4]
  toxicity to the cells (MTT test): non-toxic
[5]
  COX-2-mRNA steady state concentration by comparison with untreated cells: greatly reduced

## O=C(CCc1ccccc1)OC[C@H]1O[C@@H](Oc2ccccc2CO)[C@H](O)[C@@H](O)[C@@H]1O [phenylpropionyl salicin, 6-O-phenylpropionyl-[2-(hydroxymethyl)phenyl]-β-D-glucopyranoside]
[3]
  toxicity to the cells (MTT test): non-toxic
  influence on the vitality of skin cells (keratinocytes), FIG. 1: minimal
[4]
  toxicity to the cells (MTT test): non-toxic

From patent US6750332B1, “Salicyl alcohol derivatives” (Cognis Deutschland GmbH & Co. KG, priority 1999, dated 2004)
